The values that follow come from patent US8013153B2, “Substituted pyrimidine kinase inhibitors” (Janssen Pharmaceutica, N.V., priority 2006, dated 2011).

The target in one assay is C-Raf (Homo sapiens, UniProt P04049). The experiment in a line: RAF Kinase Screening Assay (C-Raf). To be noted: Compound 50 tested at 30 μM.
The subject of another assay is HCT-116 colon carcinoma. The experiment in a line: Inhibition of in vitro cell proliferation (HCT116).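 Also: cells exposed to compound for 24 h, then 14C-thymidine added for a further 24 h and its uptake into DNA counted by scintillation, DMSO-only wells as control.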 In kind it is cell-based, human. To be noted: Homo sapiens, HCT-116, 14C-thymidine incorporation. For orientation: Dividing cells build labelled thymidine or BrdU into new DNA.
The next assay has as its target T1, murine Aurora-A (Mus musculus, UniProt P97477).
T1 construct: replaced with the full length protein encoding the murine Aurora-A; made in house; host or cells: sf9 insect cells
T1 sequence (P97477 1-395): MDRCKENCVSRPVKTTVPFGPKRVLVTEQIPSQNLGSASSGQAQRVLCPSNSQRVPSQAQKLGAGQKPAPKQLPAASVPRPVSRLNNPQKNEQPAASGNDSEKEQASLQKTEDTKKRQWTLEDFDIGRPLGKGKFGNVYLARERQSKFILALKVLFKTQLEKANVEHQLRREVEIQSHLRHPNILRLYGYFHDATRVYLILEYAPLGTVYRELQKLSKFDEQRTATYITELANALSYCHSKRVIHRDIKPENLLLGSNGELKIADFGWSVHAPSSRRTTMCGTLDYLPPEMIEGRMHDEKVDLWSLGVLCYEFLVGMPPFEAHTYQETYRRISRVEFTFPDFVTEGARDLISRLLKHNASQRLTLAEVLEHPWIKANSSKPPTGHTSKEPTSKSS
The experiment in a line: Aurora-A Screening Assay. In kind it is biochemical.

In assay [1] the test system is spontaneous intestinal adenoma formation. Briefly: C57BL/6J-APC Min-mouse model of human adenomatous polyposis coli. The format is in vivo, C57BL/6J-Apc min mice. To be noted: 100 mg/kg orally once-daily; vehicle 47±7, baseline 23±4. How it is done:
The ability of Compound 50 to inhibit angiogenesis and tumor growth was tested in a spontaneous tumor model. the pre-cancerous polyp formation in the mouse model of human intestinal tumorigenesis.
Transgenic C57BL/6J-Apc min mice heterozygous for a dominant nonsense Apc mutation are highly susceptible to spontaneous intestinal adenoma formation (homozygous mice are not viable). One hundred percent of these animals will develop polyps by 12 weeks of age. This model is widely used for studying prevention of intestinal adenoma formation and is well described in the literature (Yang K, Edelmann W, Fan K, et. al. A mouse model of human familial adenomatous polyposis. J Exp Zool. 1997 15; 277(3):245-54).
Female C57BL/6J-Apc^Min mice (Jackson Laboratory, MN), 5 weeks of age, were housed (up to 10 mice per group) for a minimum of one week. Animals were then sorted into treatment groups based on body weight such that the mean body weight for the animals in each group was approximately the same. Small cohorts of animals (n=6) were sacrificed at day 1, before treatment to get a baseline number of polyps (mean polyp number at beginning of study). […]
Animals in the treated group (n=10) were dosed daily with Compound 50 at 100 mg/kg orally q.d. for one week. […] The intestine of each mouse was excised, perfused, stained (0.01% Trypan Blue) and polyps were counted under 10× magnification.

The term IC50 denotes the concentration that inhibits the measured activity by half. Read a high IC50 as a need for much substance.

SMILES strings stand for the structures. Entries after “also recorded” stand apart in the source; their conditions may differ. Some results are limits rather than exact numbers.

C-Raf, sequence (P04049 whole entry, species assumed): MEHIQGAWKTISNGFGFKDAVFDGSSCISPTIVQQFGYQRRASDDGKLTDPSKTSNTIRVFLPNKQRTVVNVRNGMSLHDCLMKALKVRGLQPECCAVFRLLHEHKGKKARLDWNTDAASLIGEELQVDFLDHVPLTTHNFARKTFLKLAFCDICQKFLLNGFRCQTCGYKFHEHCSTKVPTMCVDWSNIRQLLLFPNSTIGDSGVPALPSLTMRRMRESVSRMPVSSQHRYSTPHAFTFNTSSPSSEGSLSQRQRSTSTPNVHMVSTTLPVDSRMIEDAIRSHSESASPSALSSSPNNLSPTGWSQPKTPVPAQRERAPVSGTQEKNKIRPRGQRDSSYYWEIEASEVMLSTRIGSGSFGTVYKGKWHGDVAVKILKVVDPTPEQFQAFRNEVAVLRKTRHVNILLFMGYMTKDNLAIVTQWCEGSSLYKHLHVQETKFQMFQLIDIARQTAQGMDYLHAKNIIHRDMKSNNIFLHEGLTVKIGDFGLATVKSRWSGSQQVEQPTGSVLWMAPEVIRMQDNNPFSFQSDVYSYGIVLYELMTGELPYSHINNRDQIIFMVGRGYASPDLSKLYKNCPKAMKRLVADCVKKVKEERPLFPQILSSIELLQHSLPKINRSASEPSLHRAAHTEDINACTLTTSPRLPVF

For the compound `CCNC(=O)Nc1ccc(Oc2ncnc(N)c2/C=N/OC)cc1Cl` [Cpd 50, 1-{4-[6-amino-5-(methoxyimino-methyl)-pyrimidin-4-yloxy]-2-chloro-phenyl}-3-ethyl-urea], the “activity against C-Raf” value on C-Raf is “no activity; also recorded: not active”. For the same compound, the IC50 with HCT-116 colon carcinoma was 3.7 µM; against murine Aurora-A, > 100 µM. This compound also yielded a polyp counts in assay [1] of 27±7.
